{"source": "patent US4276890A", "about": "“Tobacco smoking inhibitor” (priority 1979, dated 1981)", "test_system": "cigarette consumption of smokers", "experiment": "Multi-day dose course in individual smokers (Example 4, Table 1): tobacco consumption", "format": "in vivo, human (volunteer smokers)", "from_the_text": "Smoking behavior is complex and includes cigarette, pipe and cigar smoking. Both from the standpoint of habituation and of health hazard, cigarette smoking is considered to be the most serious. It is contemplated that the treatment method described herein will be effective to inhibit all forms of smoking behavior and combinations thereof, involving the consumption of tobacco. For convenience, the ensuing discussion focuses on cigarette smoking, as exemplary of smoking behavior in general. Tobacco consumption is a function the number of cigarettes smoked and the proportion of each cigarette smoked. Reduction of consumption is measured by comparison with a smoker's pretreatment consumption rate. All data used herein are expressed as percent reduction, i.e., the differential between pretreatment and current smoking consumption rate divided by the pretreatment rate, times 100. All rates are calculated to take into account both the number of cigarettes smoked and the proportion of each smoked.\nExtensive tests were made of individual smokers of varied age, smoking history, and sex in a course of treatment extending over several days. All smokers tested in this experiment were initially naive as to the purpose of the test or the expected effect. The subjects volunteered for the tests after being told that the material is safe according to FDA food additive standards and that they were to report all observed effects. So far as can be ascertained none of the subjects deduced the true purpose of the test until the effects were made obvious by substantial involuntary reduction in their smoking activities. Subjects were interviewed before the dosage course to insure that they were in general good health. Interviews were also conducted during and after the dosage course, at least every third day to ascertain what physiological or psychological effects were experienced. No side effects were noted during or after the treatment cycle.\nSeveral individuals from the original test series volunteered for additional testing. In all such instances, a treatment free period of three weeks to three months was interposed between tests.\nSubjects are identified by number. The original, naive tests are identified by the letter \"a\" following the subjects' number. Subsequent test series are identified sequentially by \"b\" and \"c\", where appropriate.\nAll subjects except nos. 10 and 11 received ethyl maltol in a chewing gum with instructions to chew for at least 10 minutes, and preferably 15 minutes. Subjects 10 and 11 received ethyl maltol in tablet form, rather than by sustained release in the mouth.", "key": {"[1]": {"settings": "chewing gum, 600 mg/day, 1 day, subject 8b"}, "[2]": {"settings": "chewing gum, 800 mg/day, course: 1a 16 days, 2b 20, 7b 20, 8a 1, 9a 5 days"}, "[3]": {"settings": "chewing gum, 900 mg/day, 12 days, subject 2a"}, "[4]": {"settings": "chewing gum, 1200 mg/day, 8 days, subject 4a"}, "[5]": {"settings": "chewing gum, 1500 mg/day, 25 days, subject 3a"}, "[6]": {"settings": "tablets, 1000 mg/day, 15 days, subject 11a"}, "[7]": {"settings": "tablets, 1200 mg/day, 10 days, subject 10a"}}, "note": "“And” between values parts separate entries of the source, which are not always exact repeats. Equal entries are not always repeated. “Also recorded” adds a separate entry of the source."}
{"smiles": "CCc1occc(=O)c1O", "note": "[ethyl maltol, 3-hydroxy-2-ethyl-4-pyrone]", "values": [{"measurement": "Cigarette Consumption per day at end (in words)", "setting": "chewing gum, 600 mg/day, 1 day, subject 6a, for following 2 wks.", "result": "Reduced to 1/2 pack for following"}, {"measurement": "Change in Smoking Pattern per cig.", "setting": "[1]", "result": "Less than 1/2"}, {"measurement": "Cigarette Consumption per day at end", "setting": "[1]", "result": 7, "unit": "cigarettes per day"}, {"measurement": "Percentage Reduction", "setting": "[1]", "result": "40-50%"}, {"measurement": "Change in Smoking Pattern per cig.", "setting": "chewing gum, 700 mg/day, course: 2c 30 days, 3b 8, 5a 14, 7c 40 days", "result": "Approx. 1/2; also recorded: Varied; also recorded: Less than 3/4; also recorded: Reduced to 2-3 puffs"}, {"measurement": "Change in Smoking Pattern per cig.", "setting": "[2]", "result": "Approx. 1/2; also recorded: Less than 1/2; also recorded: Less than 3/4; also recorded: Reduced to light-up"}, {"measurement": "Percentage Reduction", "setting": "[2]", "result": "70-80% and 41-68% and 75% and 75-80% and 70%"}, {"measurement": "Cigarette Consumption per day at end", "setting": "[3]", "result": 0, "unit": "cigarettes per day"}, {"measurement": "Percentage Reduction", "setting": "[3]", "result": 100, "unit": "%"}, {"measurement": "Change in Smoking Pattern per cig.", "setting": "chewing gum, 1000 mg/day, course: 4b 4 days, 7a 7, 12a 8 days", "result": "Less than 1/2; also recorded: Reduced to 3-4 puffs"}, {"measurement": "Cigarette Consumption per day at end", "setting": "[4]", "result": 0, "unit": "cigarettes per day"}, {"measurement": "Percentage Reduction", "setting": "[4]", "result": 100, "unit": "%"}, {"measurement": "Cigarette Consumption per day at end", "setting": "[5]", "result": 0, "unit": "cigarettes per day"}, {"measurement": "Percentage Reduction", "setting": "[5]", "result": 100, "unit": "%"}, {"measurement": "Smoking during dose course (in words)", "setting": "non-habit smoker 13a, chewing gum, 1000 mg/day, 2 days", "result": "Not able to finish cigarette"}, {"measurement": "effectiveness of systemic administration", "setting": "tablet form, subjects 10 and 11, retention in the mouth not ruled out", "result": "partially effective"}, {"measurement": "Change in Smoking Pattern per cig.", "setting": "[6]", "result": "Less than 3/4"}, {"measurement": "Cigarette Consumption per day at end", "setting": "[6]", "result": "17-18 cigarettes per day"}, {"measurement": "Percentage Reduction", "setting": "[6]", "result": "40-43%"}, {"measurement": "Change in Smoking Pattern per cig.", "setting": "[7]", "result": "Reduced to 3-4 puffs"}, {"measurement": "Cigarette Consumption per day at end", "setting": "[7]", "result": "10-12 cigarettes per day"}, {"measurement": "Percentage Reduction", "setting": "[7]", "result": "70-75%"}]}
